From PMC4504471, “Cilostazol Induces PGI2 Production via Activation of the Downstream Epac-1/Rap1 Signaling Cascade to Increase Intracellular Calcium by PLCε and to Activate p44/42 MAPK in Human Aortic Endothelial Cells” (PLoS ONE, 2015)

Columns and labels:
PDE3B [1] = biological target: T1, PDE3B (Homo sapiens, UniProt Q13370); test: SPR (Biacore S51), competition with Epac-1 peptides on immobilized PDE3B peptide; format: binding; conditions: read-out: % maximal inhibition
PDE3B [2] = biological target: T1, PDE3B; test: SPR (Biacore S51), direct binding and competition with Epac-1 peptides; cAMP rise in HAECs lost on PDE3B siRNA; conditions: read-out: % maximal inhibition

T1 sequence (Q13370 1-25): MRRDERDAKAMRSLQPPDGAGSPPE
T1 sequence (O95398 whole entry partner): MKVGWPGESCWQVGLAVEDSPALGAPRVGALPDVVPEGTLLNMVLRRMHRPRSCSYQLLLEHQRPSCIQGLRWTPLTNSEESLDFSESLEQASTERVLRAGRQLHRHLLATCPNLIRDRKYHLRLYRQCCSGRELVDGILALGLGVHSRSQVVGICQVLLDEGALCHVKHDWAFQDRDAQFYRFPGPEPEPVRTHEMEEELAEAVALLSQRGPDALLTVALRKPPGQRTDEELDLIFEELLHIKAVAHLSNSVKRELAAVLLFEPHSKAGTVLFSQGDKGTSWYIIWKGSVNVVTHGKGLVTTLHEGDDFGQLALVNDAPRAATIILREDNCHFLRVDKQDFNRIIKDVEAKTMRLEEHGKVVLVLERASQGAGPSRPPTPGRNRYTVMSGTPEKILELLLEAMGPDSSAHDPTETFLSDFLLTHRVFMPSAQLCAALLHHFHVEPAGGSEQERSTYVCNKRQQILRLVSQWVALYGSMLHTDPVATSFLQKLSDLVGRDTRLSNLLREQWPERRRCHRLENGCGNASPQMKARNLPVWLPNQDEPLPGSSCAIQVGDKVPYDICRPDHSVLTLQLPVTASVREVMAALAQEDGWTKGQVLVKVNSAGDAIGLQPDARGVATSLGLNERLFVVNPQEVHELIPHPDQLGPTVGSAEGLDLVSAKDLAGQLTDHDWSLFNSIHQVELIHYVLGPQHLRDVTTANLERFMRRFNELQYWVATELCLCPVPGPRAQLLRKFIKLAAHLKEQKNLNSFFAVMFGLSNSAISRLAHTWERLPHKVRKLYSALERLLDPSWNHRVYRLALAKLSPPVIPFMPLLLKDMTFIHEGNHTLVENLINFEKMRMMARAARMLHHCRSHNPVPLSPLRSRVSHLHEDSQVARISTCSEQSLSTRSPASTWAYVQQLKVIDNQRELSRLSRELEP

Emax (PDE3B [2]) [%]	SMILES	Emax (PDE3B [1]) [%]
–	Cc1[nH]c(=O)c(C#N)cc1-c1ccncc1 [milrinone]	60
70	O=C1CCc2cc(OCCCCc3nnnn3C3CCCCC3)ccc2N1 [cilostazol, 6-[4-(1-cyclohexyl-1H-tetrazol-5-yl)butyloxy]-3,4-dihydroquinolin-2-(1H)-one]	–
–	CN(C(=O)CCCOc1ccc2[nH]c(=O)ccc2c1)C1CCCCC1 [cilostamide]	63
